System: harmful plant species
Experiment: Specific trial examples: synergistic effect (Δ) of herbicidal binary compositions applied by the post-emergence method, observed vs Colby expected value (Tables 3.1-3.4)
Format: in vivo
[1] = 1 g a.i./ha, post-emergence (Z25)
[2] = 1 g a.i./ha, post-emergence (Z26)
[3] = 4 g a.i./ha, post-emergence (Table 3.2, Z25)
[4] = 5 g a.i./ha, post-emergence (Table 3.2, Z25)
[5] = 16 g a.i./ha, post-emergence (Table 3.2, Z25)

O=C(Nc1ccc(F)cc1F)c1cccnc1Oc1cccc(C(F)(F)F)c1 [(B2.18) Diflufenican]
20%: Herbicidal action 14 DAT [%] against Alopecurus myosuroides (30 g a.i./ha, post-emergence) | Herbicidal action 14 DAT [%] against Phalaris minor (30 g a.i./ha, post-emergence) | Herbicidal action 21 DAT [%] against Abutilon theophrasti (30 g a.i./ha, post-emergence) | Herbicidal action 28 DAT [%] against Veronica hederifolia (30 g a.i./ha, post-emergence) | Herbicidal action 14 DAT [%] against Alopecurus myosuroides (90 g a.i./ha, post-emergence) | Herbicidal action 14 DAT [%] against Lolium rigidum (90 g a.i./ha, post-emergence) | Herbicidal action 14 DAT [%] against Poa annua L. (90 g a.i./ha, post-emergence) | Herbicidal action 21 DAT [%] against Abutilon theophrasti (90 g a.i./ha, post-emergence) | Herbicidal action 21 DAT [%] against Kochia Scoparia (90 g a.i./ha, post-emergence) | Herbicidal action 21 DAT [%] against Setaria viridis (90 g a.i./ha, post-emergence) | Herbicidal action 28 DAT [%] against Poa annua L. (90 g a.i./ha, post-emergence) | Herbicidal action 28 DAT [%] against Veronica hederifolia (90 g a.i./ha, post-emergence) | Herbicidal action 14 DAT [%] against Lolium rigidum (270 g a.i./ha, post-emergence) | Herbicidal action 28 DAT [%] against Alopecurus myosuroides (270 g a.i./ha, post-emergence) | Herbicidal action 28 DAT [%] against Matricaria inodora (270 g a.i./ha, post-emergence)
60%: Herbicidal action 21 DAT [%] against Ipomoea purpurea (270 g a.i./ha, post-emergence)
30%: Herbicidal action 21 DAT [%] against Ipomoea purpurea (30 g a.i./ha, post-emergence) | Herbicidal action 14 DAT [%] against Matricaria inodora (270 g a.i./ha, post-emergence) | Herbicidal action 14 DAT [%] against Phalaris minor (270 g a.i./ha, post-emergence) | Herbicidal action 14 DAT [%] against Veronica hederifolia (270 g a.i./ha, post-emergence) | Herbicidal action 21 DAT [%] against Abutilon theophrasti (270 g a.i./ha, post-emergence) | Herbicidal action 28 DAT [%] against Lolium rigidum (270 g a.i./ha, post-emergence) | Herbicidal action 28 DAT [%] against Phalaris minor (270 g a.i./ha, post-emergence) | Herbicidal action 28 DAT [%] against Poa annua L. (270 g a.i./ha, post-emergence) | Herbicidal action 28 DAT [%] against Veronica hederifolia (270 g a.i./ha, post-emergence)
10%: Herbicidal action 21 DAT [%] against Kochia Scoparia (30 g a.i./ha, post-emergence) | Herbicidal action 21 DAT [%] against Setaria viridis (30 g a.i./ha, post-emergence) | Herbicidal action 28 DAT [%] against Phalaris minor (30 g a.i./ha, post-emergence) | Herbicidal action 28 DAT [%] against Poa annua L. (30 g a.i./ha, post-emergence) | Herbicidal action 28 DAT [%] against Phalaris minor (90 g a.i./ha, post-emergence)
25%: Herbicidal action 21 DAT [%] against Kochia Scoparia (270 g a.i./ha, post-emergence)

CP(=O)(O)CCC(N)C(=O)O (stereo not drawn) [(B7.4) Glufosinate]
50%: Herbicidal action 21 DAT [%] against Abutilon theophrasti (50 g a.i./ha, post-emergence) | Herbicidal action 14 DAT [%] against Veronica hederifolia (60 g a.i./ha, post-emergence) | Herbicidal action 21 DAT [%] against Kochia Scoparia (150 g a.i./ha, post-emergence) | Herbicidal action 14 DAT [%] against Lolium rigidum (resistant biotype) (540 g a.i./ha, post-emergence)
40%: Herbicidal action 14 DAT [%] against Lolium rigidum (180 g a.i./ha, post-emergence) | Herbicidal action 28 DAT [%] against Lolium rigidum (540 g a.i./ha, post-emergence) | Herbicidal action 28 DAT [%] against Phalaris minor (540 g a.i./ha, post-emergence)
10%: Herbicidal action 21 DAT [%] against Kochia Scoparia (50 g a.i./ha, post-emergence) | Herbicidal action 28 DAT [%] against Phalaris minor (60 g a.i./ha, post-emergence)
30%: Herbicidal action 28 DAT [%] against Centaurea cyanus (180 g a.i./ha, post-emergence) | Herbicidal action 28 DAT [%] against Phalaris minor (180 g a.i./ha, post-emergence) | Herbicidal action 28 DAT [%] against Lolium rigidum (resistant biotype) (540 g a.i./ha, post-emergence)
70%: Herbicidal action 28 DAT [%] against Centaurea cyanus (540 g a.i./ha, post-emergence)
90%: Herbicidal action 21 DAT [%] against Amaranthus palmeri (150 g a.i./ha, post-emergence)
60%: Herbicidal action 14 DAT [%] against Centaurea cyanus (180 g a.i./ha, post-emergence) | Herbicidal action 28 DAT [%] against Matricaria inodora (180 g a.i./ha, post-emergence) | Herbicidal action 14 DAT [%] against Phalaris minor (540 g a.i./ha, post-emergence)
85%: Herbicidal action 14 DAT [%] against Centaurea cyanus (540 g a.i./ha, post-emergence)
20%: Herbicidal action 14 DAT [%] against Phalaris minor (60 g a.i./ha, post-emergence) | Herbicidal action 28 DAT [%] against Poa annua L. (180 g a.i./ha, post-emergence)
35%: Herbicidal action 21 DAT [%] against Amaranthus palmeri (50 g a.i./ha, post-emergence (Z25))

O=C(O)CNCP(=O)(O)O [(B7.5) Glyphosate]
0%: Herbicidal action 42 DAT [%] against Malva pusilla (720 g a.i./ha, post-emergence) | Herbicidal action 45 DAT [%] against Ipomoea ssp (720 g a.i./ha, post-emergence)
90%: Herbicidal action 28 DAT [%] against Bromus sterilis (450 g a.i./ha, post-emergence)
60%: Herbicidal action 21 DAT [%] against Amaranthus palmeri (50 g a.i./ha, post-emergence (Z26)) | Herbicidal action 14 DAT [%] against Centaurea cyanus (450 g a.i./ha, post-emergence) | Herbicidal action 28 DAT [%] against Centaurea cyanus (450 g a.i./ha, post-emergence)
20%: Herbicidal action 21 DAT [%] against Kochia Scoparia (150 g a.i./ha, post-emergence (Z26))
50%: Herbicidal action 14 DAT [%] against Centaurea cyanus (150 g a.i./ha, post-emergence) | Herbicidal action 42 DAT [%] against Geranium dissectum (720 g a.i./ha, post-emergence)
15%: Herbicidal action 45 DAT [%] against Amaranthus tuberculatus (720 g a.i./ha, post-emergence)
30%: Herbicidal action 28 DAT [%] against Phalaris minor (50 g a.i./ha, post-emergence) | Herbicidal action 28 DAT [%] against Lolium rigidum (150 g a.i./ha, post-emergence)
70%: Herbicidal action 28 DAT [%] against Matricaria inodora (150 g a.i./ha, post-emergence) | Herbicidal action 28 DAT [%] against Lolium rigidum (resistant biotype) (450 g a.i./ha, post-emergence)
40%: Herbicidal action 28 DAT [%] against Centaurea cyanus (150 g a.i./ha, post-emergence)
62%: Herbicidal action 16 DAT [%] against Richardia scabra (720 g a.i./ha, post-emergence)
7%: Herbicidal action 45 DAT [%] against Lysimachia nummularia (720 g a.i./ha, post-emergence)
85%: Herbicidal action 28 DAT [%] against Poa annua L. (450 g a.i./ha, post-emergence)
80%: Herbicidal action 28 DAT [%] against Bromus sterilis (150 g a.i./ha, post-emergence)
10%: Herbicidal action 28 DAT [%] against Centaurea cyanus (50 g a.i./ha, post-emergence)

C=C[C@]1(C(=O)N[C@H]2C=C[C@@H](C(=O)OC)C2)CC(c2cc(F)cc(F)c2)=NO1 [Compound A1, methyl (1S,4R)-4-[[[(5S)-3-(3,5-difluorophenyl)-5-vinyl-4H-1,2-oxazol-5-yl]carbonyl]amino]cyclopent-2-ene-1-carboxylate]
60%: Herbicidal action 21 DAT [%] against Abutilon theophrasti (5 g a.i./ha, post-emergence) | Herbicidal action 21 DAT [%] against Abutilon theophrasti [4]
10%: Herbicidal action 14 DAT [%] against Centaurea cyanus [1] | Herbicidal action 28 DAT [%] against Centaurea cyanus [1] | Herbicidal action 14 DAT [%] against Centaurea cyanus [2] | Herbicidal action 28 DAT [%] against Centaurea cyanus [2]
75%: Herbicidal action 14 DAT [%] against Phalaris minor (4 g a.i./ha, post-emergence) | Herbicidal action 28 DAT [%] against Lolium rigidum (4 g a.i./ha, post-emergence) | Herbicidal action 14 DAT [%] against Phalaris minor [3] | Herbicidal action 28 DAT [%] against Lolium rigidum [3] | Herbicidal action 21 DAT [%] against Kochia Scoparia (5 g a.i./ha, post-emergence) | Herbicidal action 21 DAT [%] against Kochia Scoparia [4]
17%: Herbicidal action 42 DAT [%] against Geranium dissectum (100 g a.i./ha, post-emergence)
85%: Herbicidal action 21 DAT [%] against Setaria viridis (1.7 g a.i./ha, post-emergence) | Herbicidal action 28 DAT [%] against Alopecurus myosuroides (4 g a.i./ha, post-emergence) | Herbicidal action 28 DAT [%] against Poa annua L. (4 g a.i./ha, post-emergence) | Herbicidal action 28 DAT [%] against Poa annua L. [3] | Herbicidal action 14 DAT [%] against Alopecurus myosuroides (16 g a.i./ha, post-emergence) | Herbicidal action 28 DAT [%] against Matricaria inodora (16 g a.i./ha, post-emergence) | Herbicidal action 28 DAT [%] against Phalaris minor (16 g a.i./ha, post-emergence) | Herbicidal action 28 DAT [%] against Matricaria inodora [5] | Herbicidal action 28 DAT [%] against Phalaris minor [5] | Herbicidal action 28 DAT [%] against Phalaris minor (16 g a.i./ha, post-emergence (Z26)) | Herbicidal action 21 DAT [%] against Kochia Scoparia (45 g a.i./ha, post-emergence)
30%: Herbicidal action 14 DAT [%] against Phalaris minor (1 g a.i./ha, post-emergence) | Herbicidal action 14 DAT [%] against Veronica hederifolia (1 g a.i./ha, post-emergence) | Herbicidal action 28 DAT [%] against Bromus sterilis (1 g a.i./ha, post-emergence) | Herbicidal action 28 DAT [%] against Poa annua L. (1 g a.i./ha, post-emergence) | Herbicidal action 14 DAT [%] against Phalaris minor (1 g a.i./ha, post-emergence (Table 3.2, Z25)) | Herbicidal action 28 DAT [%] against Lolium rigidum [1] | Herbicidal action 28 DAT [%] against Lolium rigidum [2] | Herbicidal action 28 DAT [%] against Poa annua L. [2] | Herbicidal action 14 DAT [%] against Centaurea cyanus (4 g a.i./ha, post-emergence) | Herbicidal action 28 DAT [%] against Centaurea cyanus (4 g a.i./ha, post-emergence) | Herbicidal action 21 DAT [%] against Amaranthus palmeri (5 g a.i./ha, post-emergence (Z25)) | Herbicidal action 21 DAT [%] against Amaranthus palmeri (5 g a.i./ha, post-emergence (Z26))
20%: Herbicidal action 14 DAT [%] against Lolium rigidum (resistant biotype) (1 g a.i./ha, post-emergence) | Herbicidal action 28 DAT [%] against Lolium rigidum (resistant biotype) (1 g a.i./ha, post-emergence)
0%: Herbicidal action 42 DAT [%] against Malva pusilla (100 g a.i./ha, post-emergence)
25%: Herbicidal action 45 DAT [%] against Lysimachia nummularia (100 g a.i./ha, post-emergence)
57%: Herbicidal action 45 DAT [%] against Amaranthus tuberculatus (100 g a.i./ha, post-emergence) | Herbicidal action 45 DAT [%] against Ipomoea ssp (100 g a.i./ha, post-emergence)
70%: Herbicidal action 14 DAT [%] against Lolium rigidum (4 g a.i./ha, post-emergence) | Herbicidal action 14 DAT [%] against Matricaria inodora (4 g a.i./ha, post-emergence) | Herbicidal action 28 DAT [%] against Phalaris minor (4 g a.i./ha, post-emergence) | Herbicidal action 28 DAT [%] against Phalaris minor [3] | Herbicidal action 14 DAT [%] against Veronica hederifolia (16 g a.i./ha, post-emergence)
50%: Herbicidal action 28 DAT [%] against Matricaria inodora [1] | Herbicidal action 28 DAT [%] against Matricaria inodora [2] | Herbicidal action 28 DAT [%] against Centaurea cyanus (16 g a.i./ha, post-emergence)
40%: Herbicidal action 28 DAT [%] against Veronica hederifolia (4 g a.i./ha, post-emergence) | Herbicidal action 28 DAT [%] against Lolium rigidum (resistant biotype) (4 g a.i./ha, post-emergence (Z25)) | Herbicidal action 28 DAT [%] against Lolium rigidum (resistant biotype) (4 g a.i./ha, post-emergence (Z26)) | Herbicidal action 21 DAT [%] against Amaranthus palmeri (15 g a.i./ha, post-emergence) | Herbicidal action 14 DAT [%] against Centaurea cyanus (16 g a.i./ha, post-emergence)
48%: Herbicidal action 16 DAT [%] against Richardia scabra (100 g a.i./ha, post-emergence)
90%: Herbicidal action 21 DAT [%] against Setaria viridis (5 g a.i./ha, post-emergence)
80%: Herbicidal action 14 DAT [%] against Alopecurus myosuroides (4 g a.i./ha, post-emergence) | Herbicidal action 14 DAT [%] against Poa annua L. (4 g a.i./ha, post-emergence) | Herbicidal action 21 DAT [%] against Ipomoea purpurea (5 g a.i./ha, post-emergence) | Herbicidal action 21 DAT [%] against Ipomoea purpurea (15 g a.i./ha, post-emergence) | Herbicidal action 21 DAT [%] against Kochia Scoparia (15 g a.i./ha, post-emergence) | Herbicidal action 21 DAT [%] against Kochia Scoparia (15 g a.i./ha, post-emergence (Table 3.2, Z25)) | Herbicidal action 21 DAT [%] against Kochia Scoparia (15 g a.i./ha, post-emergence (Z26)) | Herbicidal action 14 DAT [%] against Lolium rigidum (16 g a.i./ha, post-emergence) | Herbicidal action 14 DAT [%] against Poa annua L. (16 g a.i./ha, post-emergence)

Reference: patent US12433293B2, “Herbicidal compositions” (BAYER AKTIENGESELLSCHAFT, priority 2019, dated 2025)
